{"source": "patent US20220218678A1", "about": "“USE OF 1-PHENYL-2-PYRIDINYL ALKYL ALCOHOL DERIVATIVES FOR TREATING CYSTIC FIBROSIS” (CHIESI FARMACEUTICI S.p.A., priority 2017, published 2022)", "key": {"ΔF508 CFTR": {"molecular_target": "T1, ΔF508 CFTR (Homo sapiens, UniProt P13569, DEL508-508)", "T1 construct": "cells expressing endogenous ΔF508-CFTR; endogenous in cells; host or cells: CFBE41o− human CF bronchial epithelial cell line (gift from D. C. Gruenert), homozygous ΔF508", "T1 sequence (P13569 with tags, fused parts or gaps DEL508-508)": "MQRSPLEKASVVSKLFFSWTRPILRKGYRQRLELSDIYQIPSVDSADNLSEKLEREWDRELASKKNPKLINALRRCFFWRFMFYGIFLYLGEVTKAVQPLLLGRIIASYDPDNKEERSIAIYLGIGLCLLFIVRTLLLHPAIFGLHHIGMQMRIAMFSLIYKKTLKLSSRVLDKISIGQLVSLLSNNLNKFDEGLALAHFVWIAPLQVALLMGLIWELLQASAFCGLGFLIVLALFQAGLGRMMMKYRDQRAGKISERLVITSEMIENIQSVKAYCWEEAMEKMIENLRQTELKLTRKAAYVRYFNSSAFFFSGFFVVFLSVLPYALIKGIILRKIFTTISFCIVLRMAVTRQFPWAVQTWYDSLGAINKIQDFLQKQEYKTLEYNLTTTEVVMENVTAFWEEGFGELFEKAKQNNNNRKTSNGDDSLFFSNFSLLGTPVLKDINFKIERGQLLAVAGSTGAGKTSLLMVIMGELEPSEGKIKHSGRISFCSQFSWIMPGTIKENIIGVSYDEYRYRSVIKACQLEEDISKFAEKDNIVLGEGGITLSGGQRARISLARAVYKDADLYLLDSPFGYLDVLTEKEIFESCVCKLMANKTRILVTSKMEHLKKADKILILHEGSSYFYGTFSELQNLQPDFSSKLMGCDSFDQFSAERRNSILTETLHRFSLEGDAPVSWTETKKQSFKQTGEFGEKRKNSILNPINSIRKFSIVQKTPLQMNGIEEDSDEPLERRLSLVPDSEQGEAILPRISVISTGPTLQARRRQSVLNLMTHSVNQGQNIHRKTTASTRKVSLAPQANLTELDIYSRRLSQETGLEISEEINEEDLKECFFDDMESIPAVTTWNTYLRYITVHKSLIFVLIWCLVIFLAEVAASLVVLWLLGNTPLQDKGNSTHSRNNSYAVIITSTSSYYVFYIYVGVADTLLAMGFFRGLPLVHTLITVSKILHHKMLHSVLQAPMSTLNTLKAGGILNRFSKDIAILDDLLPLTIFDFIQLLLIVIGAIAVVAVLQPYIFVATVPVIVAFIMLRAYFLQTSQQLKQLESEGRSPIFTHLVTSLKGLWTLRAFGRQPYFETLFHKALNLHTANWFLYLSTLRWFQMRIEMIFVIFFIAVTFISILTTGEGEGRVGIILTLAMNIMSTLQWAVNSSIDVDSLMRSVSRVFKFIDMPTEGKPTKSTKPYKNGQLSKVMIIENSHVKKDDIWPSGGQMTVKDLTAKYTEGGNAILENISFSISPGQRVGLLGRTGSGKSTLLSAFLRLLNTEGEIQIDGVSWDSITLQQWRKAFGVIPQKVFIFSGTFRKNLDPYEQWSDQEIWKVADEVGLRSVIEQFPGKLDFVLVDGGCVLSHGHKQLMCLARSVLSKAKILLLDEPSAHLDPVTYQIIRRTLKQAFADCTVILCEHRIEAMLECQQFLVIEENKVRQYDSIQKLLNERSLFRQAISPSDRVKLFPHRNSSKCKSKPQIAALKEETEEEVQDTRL", "test": "HS-YFP assay, CFTR potentiator activity in CFBE41o− cells", "assay_type": "cell-based", "settings": "10 minutes exposure, following CFTR correction by VRT809 (5 μM, 24 h)", "from_the_text": "The CF human bronchial epithelial cell line (CFBE41o−), homozygous for the ΔF508 mutation of the CFTR protein (Ehrhard et al., 2006, Cell Tissue Res. Vol. 323, p. 405-415; kind gift from D. C. Gruenert, California Pacific Medical Center Research Institute, San Francisco, Calif., USA) and the human bronchial epithelial cell line 16HBE14o−, wildtype (wt) for the CFTR protein (kindly provided by P. Davis, Case Western Reserve University School of Medicine, Cleveland, Ohio, USA) were maintained in EMEM (Lonza) supplemented with 10% FBS and 1% Glutamax (Sigma). […]\nThe CFTR activity in epithelial cells was evaluated by Yellow Fluorescence Protein (YFP) with a protocol modified from the method published by Averna et al. (PLoS One, 2013, vol. 8, e66089). […]\nThe potential effect of different agents on the activity of CFTR in CFBE41o− cells was analysed by the HS-YFP assay, combining a short exposure (10 minutes) with agents as follows: CHF6001, Roflumilast or VRT 770 (5 μM), alone or in combination, with a 24 h pre-treatment with the CFTR corrector VRT809 (5 μM). […]"}, "[1]": {"settings": "healthy volunteers, daily doses of up to 4800 μg (4.8 mg) for 14 days; cited from earlier work"}}, "data": [{"molecule": "CS(=O)(=O)Nc1ccc(C(=O)OC(Cc2c(Cl)c[n+]([O-])cc2Cl)c2ccc(OC(F)F)c(OCC3CC3)c2)cc1OCC1CC1", "note": "(centres unmarked) [CHF6001, 3-Cyclopropylmethoxy-4-methanesulfonylamino-benzoic acid 1-(3-cyclopropylmethoxy-4-difluoromethoxy-phenyl)-2-(3,5-dichloro-1-oxy-pyridin-4-yl)-ethyl ester]", "values": [{"measurement": "CFTR activity (delta fluorescence un-stimulated versus stimulated cells)", "setting": "ΔF508 CFTR", "result": "comparable to the reference compound VRT 770"}, {"measurement": "safety and tolerability", "setting": "[1]", "result": "Good safety and tolerability"}]}]}
